{"source": "patent US9738731B2", "about": "“Lactic acid bacterium growth enhancer, regulatory T-cell number increasing agent, method of enhancing growth of lactic acid bacterium, method of increasing number of regulatory T-cells, method of evaluating regulatory T-cell number increasing effect, and method of evaluating lactic acid growth …” (TOKYO UNIVERSITY OF SCIENCE FOUNDATION, priority 2013, dated 2017)", "system": "total cLP cells from WT mice", "test": "Co-culture of total cLP cells with Lactobacillus strains, gene expression", "type": "cell-based, mouse", "conditions": "1×10^5 cLP cells with 1×10^6 CFU, 12 h", "procedure": "FIG. 7C: 1×10^5 total cLP cells from WT mice were co-cultured with 1×10^6 CFU (/well) L. murinus, L. animalis, L. salivarius, L. johnsonii or L. reuteri for 12 h. Cytokine gene expression was determined by real-time RT-PCR. Data in (FIGS. 7A-C) are representative of two independent experiments.\nTotal RNA was extracted with Mammalian Total RNA Miniprep kit (Sigma-Aldrich, St. Louis, U.S.) according to the manufacturer's instructions. RNA was denatured in the presence of an oligo dT primer and then reverse transcribed with the High Capacity cDNA Reverse Transcription Kit (Applied Biosystems, San Francisco, U.S.). Quantitative real-time RT-PCRs were performed with a SYBR Green qPCR kit (Carlsbad, U.S.) and an iCycler system (Bio-Rad, Hercules, U.S.) with the sets of primers described in Table 1, and the expression of each mRNA encoding cytokine was normalized with gapdh expression level.", "data": [{"substance": "Lactobacillus reuteri", "values": [{"measurement": "expression of these genes (Tgfb, Il10, Foxp3, Rorc)", "result": "did not modify"}]}]}
